In patent publication US11324706B2, “Composition for inhibiting growth of breast cancer stem cells containing phenylacetaldehyde” (JEJU NATIONAL UNIVERSITY INDUSTRY-ACADEMIC COOPERATION …, priority 2016, dated 2022):

Assays:
Cancer stem cells = experiment: Formation of CSCs under PAA steam (scent); type: cell-based; settings: PAA steam (1 mM), 7 days
Protocol: Cancer stem cells were cultured in the presence of PAA steam (1 mM) and vehicle (methanol) for 7 days.
Then, formation of CSCs was analyzed by emission of PAA scent (FIG. 4C). As a result, PAA inhibited formation of CSCs. Volatile materials, i.e., PAA and phenylethanol, which are the most important for roses and tomatoes were derived from phenylalanine, as shown in FIG. 5A (FIG. 5A). In order to investigate whether or not phenylalanine-derived volatile materials, i.e., PAA and phenylethanol, and structural analogs (2- and 3-phenylpropionaldehydes) can inhibit formation of tumorspheres, these volatile materials were exposed to MCF-7.

[1] = target: T1, Stat3 / biotin-labelled Stat probe (Homo sapiens, UniProt P40763); experiment: Electrophoretic mobility shift assay (EMSA) with Stat3 probe; type: cell-based; settings: PAA-treated mammosphere nuclear extracts
T1 construct: EMSA (electrophoretic mobility-shift assay) of PAA-treated MDA-MB-231 cell-derived mammosphere nuclear lysates; endogenous in cells; host or cells: MDA-MB-231 cell-derived mammospheres (nuclear lysate)
Protocol: Nuclear lysates were cultured in biotin-labeled Stat3 probes and were isolated by 6% PAGE;
Lane 1: probe alone; Lane 2: probe+nuclear extracts; Lane 3: probe+PAA-treated nuclear extracts; Lane 4: self-competition; Lane 5: nuclear extracts cultured together with mutant STAT3 probe. The PAA reduced DNA/STAT3 interactions in mammosphere nuclear lysates;
In accordance with the manufacturer's instructions, EMSAs were detected using a chemiluminescent EMSA kit (Thermoscientific, IL, USA) commercially available from Lightshift. Biotin-top and bottom probe parts (5′-[…]-Biotin3′, SEQ NO. 11 and 5′-[…]-Biotin3′, SEQ NO. 12) of Stat3 probe were annealed and the double-stranded oligonucleotide was end-labelled with biotin.
Biotin-labelled DNA probes were cultured together with PAA-treated nuclear proteins in a total volume of 20 μl of EMSA buffer containing 1 μg/μl poly[dI-dC]) for 20 minutes at room temperature. The reaction mixture was subjected to electrophoresis on 4% polyacrylamide nondenaturing gel at 4° C. in the presence of 0.5×TBE (45 mM Tris borate and 1 mM EDTA) and visualized using a chemiluminescence nucleic acid detection kit (Thermoscientific, IL, USA).
In addition, bonding between PAA-treated nuclear extracts and Stat3 DNAs was analyzed using a biotin-labelled Stat-conjugated probe that bonds to STAT3 at a high affinity. […]

[2] = system: CD44high/CD24low cell populations of MDA-MB-231 cells; experiment: Flow cytometric analysis of CD44 and CD24 expression; type: cell-based, human; settings: MDA-MB-231, PAA 0.1 mM
Protocol: For FACS analysis, 50,000 cells were obtained. Gating was based on control antibody;
Expression of CD44 and CD24 in MDA-MB-231 cells was measured by FACS analysis. The cells were isolated and harvested using 1× trypsin/EDTA, and a million of cells were suspended, labelled with FITC-conjugated anti-human CD44 and PE-conjugated anti-human CD24 antibodies (BD Pharmingen, San Diego, Calif., USA) and cultured at 4° C. for 30 minutes. Then, the cells were washed with 1×PBS three times and analyzed by flow cytometry (Accuri C6, BD, San Diego, Calif., USA).

T1 sequence (P40763 2-770 limits assumed): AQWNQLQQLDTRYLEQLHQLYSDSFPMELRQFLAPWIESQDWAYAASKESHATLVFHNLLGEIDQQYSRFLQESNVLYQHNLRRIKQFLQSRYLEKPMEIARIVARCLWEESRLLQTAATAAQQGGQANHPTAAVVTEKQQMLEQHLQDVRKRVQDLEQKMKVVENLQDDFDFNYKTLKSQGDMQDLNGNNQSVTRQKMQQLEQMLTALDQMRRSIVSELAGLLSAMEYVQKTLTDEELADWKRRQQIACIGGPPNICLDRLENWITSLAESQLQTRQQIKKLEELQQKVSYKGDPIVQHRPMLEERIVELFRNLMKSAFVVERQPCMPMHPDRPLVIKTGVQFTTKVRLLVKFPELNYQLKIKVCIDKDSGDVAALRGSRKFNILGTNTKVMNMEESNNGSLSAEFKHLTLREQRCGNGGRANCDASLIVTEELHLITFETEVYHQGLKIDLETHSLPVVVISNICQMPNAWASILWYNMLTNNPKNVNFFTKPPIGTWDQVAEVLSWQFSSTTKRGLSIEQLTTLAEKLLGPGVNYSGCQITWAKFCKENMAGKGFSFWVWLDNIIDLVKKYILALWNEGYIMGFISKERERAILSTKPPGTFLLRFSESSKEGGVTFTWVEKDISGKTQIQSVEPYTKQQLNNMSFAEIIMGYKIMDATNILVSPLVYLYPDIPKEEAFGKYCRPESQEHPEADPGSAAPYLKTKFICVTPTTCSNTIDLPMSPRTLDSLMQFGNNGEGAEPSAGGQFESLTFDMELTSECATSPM

O=CCc1ccccc1 [PAA, phenylacetaldehyde]
formation of CSCs by emission of PAA scent (Cancer stem cells): inhibited
bonding between biotin-labelled Stat probe and Stat3 [1]: inhibited
subpopulation expressing CD44high/CD24low in breast cancer cells [2]: reduced
